These results are taken from ChEMBL document CHEMBL4823319, “Design, synthesis, and biological evaluation of potent 1,2,3,4-tetrahydroisoquinoline derivatives as anticancer agents targeting NF-κB signaling pathway” (Bioorg Med Chem, 2021).

Calls of active or inactive are those of the source. The rule behind the calls is not given here.

The test system of one test is NUGC-3. Put plainly: Anticancer activity against human […] cells assessed as growth inhibition incubated for 48 hrs by sulforhodamine B method. Format: functional. A general note: The SRB assay estimates cell density from bound dye.
For the next test, the system named is PC-3. The experiment in a line: Anticancer activity against human PC-3 cells assessed as growth inhibition incubated for 48 hrs by sulforhodamine B method. Type of test: functional.
In a further test the test system is ACHN. Put plainly: Anticancer activity against human […] cells assessed as growth inhibition incubated for 48 hrs by sulforhodamine B method. Format: functional.
The subject of another test is HCT-15. Put plainly: Anticancer activity against human HCT-15 cells assessed as growth inhibition incubated for 48 hrs by sulforhodamine B method. Format: functional.
Another test has as its system NCI-H23. The experiment in a line: Anticancer activity against human NCI-H23 cells assessed as growth inhibition incubated for 48 hrs by sulforhodamine B method. Format: functional.
Test [1] relates to MDA-MB-231. Put plainly: Anticancer activity against human MDA-MB-231 cells assessed as growth inhibition incubated for 48 hrs by sulforhodamine B method. Format: functional.
Test [2] deals with MDA-MB-231. The experiment in a line: Inhibition of NF-kappaB in human MDA-MB-231 cells assessed as reduction in LPS-induced NF-kappaB nuclear translocation at 10 uM treated with LPS for 24 hrs by Western blotting analysis. Type of test: cell-based.
Test [3] has as its system MDA-MB-231. The experiment in a line: Inhibition of NF-kappaB in human MDA-MB-231 cells assessed as reduction in LPS-induced NF-kappaB nuclear translocation at 10 uM treated with LPS for 24 hrs by immunocytochemical analysis. Format: cell-based.
Test [4] can be described thus: Inhibition of NF-kappaB transcriptional activity in mouse RAW264.7 cells harbouring NF-kappaB-SEAP-NPT reporter plasmid assessed as reduction in LPS-induced SEAP expression incubated for 16 hr with LPS. Format: cell-based.

In the case of `O=C(Nc1ccccc1C(F)(F)F)c1nccc2ccccc12`, in the test on NUGC-3, the GI50 was more than 10 µM.
In the case of `O=C(Nc1cc(C(F)(F)F)cc(C(F)(F)F)c1)C1c2ccccc2CCN1C(=O)c1ccc(Cl)cc1` (stereo unspecified), the GI50 in the test on PC-3 turned out to be 2.56 µM; in the test with NUGC-3, 2.83 µM; with ACHN it was 2.65 µM; in the test with HCT-15 it was 3.52 µM; in the test with NCI-H23, 2020 nM; with MDA-MB-231 [1], 2.71 µM.
On to `O=C(Nc1ccc(C(F)(F)F)cc1)C1c2ccccc2CCN1C(=O)c1ccc(Cl)cc1` (stereo unspecified), for which the concentration for 50% growth inhibition (GI50) is 4.49 µM with PC-3; 4.2 µM with NUGC-3; 3.47 µM with ACHN; 5.11 µM with HCT-15; 3340 nM in the test on NCI-H23; 4.35 µM with MDA-MB-231 [1].
Turning to `O=C(Nc1cccc(Cl)c1)c1nccc2ccccc12`, the GI50 in the test on NUGC-3 was more than 10 µM.
The same measure, in the same setting: with `O=C(Nc1cccc(O)c1)c1nccc2ccccc12` the figure was more than 10 µM.
With `O=C(Nc1ccccc1O)C1c2ccccc2CCN1C(=O)c1ccc(Cl)cc1` (stereo unspecified), the GI50 with NUGC-3 is more than 10 µM.
Same read-out and setting: with `COc1ccc(NC(=O)C2NCCc3ccccc32)cc1` (stereo unspecified) the figure was more than 10 µM.
Still for that read-out and setting: under `O=C(Nc1cccc(C(F)(F)F)c1)c1nccc2ccccc12` stands more than 10 µM; under `O=C(Nc1ccccc1C(F)(F)F)C1NCCc2ccccc21` (stereo unspecified), more than 10 µM; under `O=C(Nc1cc(C(F)(F)F)cc(C(F)(F)F)c1)c1nccc2ccccc12`, more than 10 µM.
Turning to `COc1cccc(NC(=O)C2c3ccccc3CCN2C(=O)c2ccc(Cl)cc2)c1` (stereo unspecified), the GI50 in the test with PC-3 turned out to be 2.89 µM; in the test on NUGC-3, 2.14 µM; with ACHN, 2.96 µM; in the test with HCT-15, 3.62 µM; in the test with NCI-H23, 2420 nM; with MDA-MB-231 [1] it was 3.21 µM.
Regarding `O=C(Nc1cccc(O)c1)C1NCCc2ccccc21` (stereo unspecified), the GI50 in the test on NUGC-3 is more than 10 µM.
In the case of `COc1cccc(NC(=O)C2NCCc3ccccc32)c1` (stereo unspecified), the 50% growth inhibitory concentration (GI50) in the test with NUGC-3 is more than 10 µM.
Consider `COc1ccccc1NC(=O)c1nccc2ccccc12`, for which the GI50 in the test with NUGC-3 was more than 10 µM.
With `COc1cccc(NC(=O)c2nccc3ccccc23)c1`, in the test on NUGC-3, the concentration for 50% growth inhibition (GI50) was more than 10 µM.
In the case of `COc1ccc(NC(=O)c2nccc3ccccc23)cc1`, the GI50 with NUGC-3 was more than 10 µM.
With `COc1ccccc1NC(=O)C1c2ccccc2CCN1C(=O)c1ccc(Cl)cc1` (stereo unspecified), the GI50 is 2.01 µM with PC-3; 1.59 µM in the test on NUGC-3; 1.98 µM in the test with ACHN; 1.74 µM in the test on HCT-15; 1940 nM with NCI-H23; 2.28 µM in the test on MDA-MB-231 [1]. Besides, the inhibition entry with MDA-MB-231 [2] was “Dose-Dependent Effect”. In the test with MDA-MB-231 [3], the inhibition entry is “Active”.
Take `COc1cccc2c1C(=O)c1c(O)c3c(c(O)c1C2=O)C[C@@](O)(C(=O)CO)C[C@@H]3O[C@H]1C[C@H](N)[C@H](O)[C@H](C)O1` [DOXORUBICIN]: the GI50 in the test on PC-3 is 0.09 µM; with ACHN it was 0.088 µM; in the test with HCT-15 it was 0.076 µM; with NCI-H23 it was 72 nM; in the test on MDA-MB-231 [1], 0.086 µM.
Take `O=C(Nc1ccc(O)cc1)c1nccc2ccccc12`: the GI50 with NUGC-3 was more than 10 µM.
Take `O=C(Nc1cccc(C(F)(F)F)c1)C1NCCc2ccccc21` (stereo unspecified): the GI50 in the test with NUGC-3 is more than 10 µM.
Same read-out and setting: under `O=C(Nc1ccc(Cl)cc1)c1nccc2ccccc12` stands more than 10 µM; under `O=C(Nc1ccccc1C(F)(F)F)C1c2ccccc2CCN1C(=O)c1ccc(Cl)cc1` (stereo unspecified), more than 10 µM.
For `COc1ccc(NC(=O)C2c3ccccc3CCN2C(=O)c2ccc(Cl)cc2)cc1` (stereo unspecified), the GI50 in the test on PC-3 worked out at 3.48 µM; in the test on NUGC-3, 3.63 µM; in the test with ACHN, 3.67 µM; in the test on HCT-15, 6.08 µM; in the test with NCI-H23, 4340 nM; in the test on MDA-MB-231 [1] it was 4.9 µM.
For the compound `O=C(Nc1ccccc1O)c1nccc2ccccc12`, in the test with NUGC-3, the GI50 was more than 10 µM.
Consider `O=C(Nc1ccc(O)cc1)C1NCCc2ccccc21` (stereo unspecified), for which the GI50 is 4.25 µM with PC-3; 4.37 µM with NUGC-3; 5.32 µM with ACHN; 5.73 µM in the test with HCT-15; 3390 nM in the test on NCI-H23; 5.05 µM with MDA-MB-231 [1].
For `O=C(Nc1ccccc1Cl)c1nccc2ccccc12`, in the test with NUGC-3, the GI50 is more than 10 µM.
The same measure, in the same setting: under `O=C(Nc1cccc(O)c1)C1c2ccccc2CCN1C(=O)c1ccc(Cl)cc1` (stereo unspecified) stands more than 10 µM; under `O=C(Nc1ccccc1O)C1NCCc2ccccc21` (stereo unspecified), more than 10 µM.
The same measure, in the same setting: with `COc1ccccc1NC(=O)C1NCCc2ccccc21` (stereo unspecified) the figure was more than 10 µM.
As to `COc1cc2c(cc1O)CCC(C(=O)Nc1ccccc1)O2` (stereo unspecified), the IC50 in test [4] came out at 40.4 µM.
Turning to `O=C(Nc1cccc(C(F)(F)F)c1)C1c2ccccc2CCN1C(=O)c1ccc(Cl)cc1` (stereo unspecified), the GI50 with NUGC-3 was more than 10 µM.
With `O=C(Nc1ccc(C(F)(F)F)cc1)c1nccc2ccccc12`, the GI50 in the test with NUGC-3 was more than 10 µM.
On the same count and under the same terms, with `O=C(Nc1ccc(O)cc1)C1c2ccccc2CCN1C(=O)c1ccc(Cl)cc1` (stereo unspecified) the figure was more than 10 µM; with `O=C(Nc1cc(C(F)(F)F)cc(C(F)(F)F)c1)C1NCCc2ccccc21` (stereo unspecified), more than 10 µM.
For `O=C(Nc1ccc(C(F)(F)F)cc1)C1NCCc2ccccc21` (stereo unspecified), the GI50 was found to be 6.59 µM with PC-3; 4.22 µM in the test with NUGC-3; 5.2 µM in the test on ACHN; 5.44 µM with HCT-15; 4400 nM in the test with NCI-H23; 4.74 µM in the test on MDA-MB-231 [1].

As usually defined, the GI50 is the concentration that inhibits growth by half. Broadly, the IC50 is the concentration needed to halve the response being measured.
